Values of other authors as cited in patent US6676963B1, “Ligand-targeted emulsions carrying bioactive agents” (Barnes-Jewish Hospital, priority 2000, dated 2004).
Read-outs that look alike come from different tables or passages of the source.

Details: for solubility in water / buffer (in words): water or aqueous buffer

| SMILES | solubility in lipid emulsions (in words) (lipid emulsions such as Intralipid or Liposyn) | solubility in water / buffer (in words) | solubility in water / buffer (in words) (listed as paclitaxel) |
| --- | --- | --- | --- |
| CC(=O)O[C@H]1C(=O)[C@@]2(C)[C@H]([C@H](OC(=O)c3ccccc3)[C@]3(O)C[C@H](OC(=O)[C@H](O)[C@@H](NC(=O)c4ccccc4)c4ccccc4)C(C)=C1C3(C)C)[C@]1(OC(C)=O)CO[C@@H]1C[C@@H]2O [taxol, paclitaxel] | insoluble in lipid emulsions | insoluble in water | highly insoluble in buffer |
| COc1cccc2c1C(=O)c1c(O)c3c(c(O)c1C2=O)C[C@@](O)(C(=O)CO)C[C@@H]3O[C@H]1C[C@H](N)[C@H](O)[C@H](C)O1 [Doxorubicin, doxorubicin] |  | highly water soluble |  |
